Measured values reported in patent US10168342B2, “Lipid probes and uses thereof” (THE SCRIPPS RESEARCH INSTITUTE, priority 2015, dated 2019).

Legend:
Assay type in all cases: cell-based
[1] = target: T1, lipid-binding proteins in Neuro2a cells (Mus musculus, UniProt Q8VCD6); test: SILAC MS mapping of lipid probe targets (probe-versus-No UV, probe-versus-probe) in Neuro2a cells; details: A-DA probe, No UV control, target protein Reep2 (Q8VCD6)
T1 construct: endogenous in cells; host or cells: Neuro2a

[2] = target: T2, lipid-binding proteins in A549 cells (Homo sapiens, UniProt O15173); test: SILAC MS mapping of UV-dependent lipid probe targets in A549 cells; details: A-DA probe vs NoUV
T2 construct: endogenous in cells; host or cells: A549 (PMA-stimulated for the PTGS2 experiments)

[3] = target: T3, lipid-binding proteins in A549 cells (Homo sapiens, UniProt Q6P1A2); test: as above; details: A-DA probe vs NoUV
T3 construct: endogenous in cells; host or cells: A549 (PMA-stimulated for the PTGS2 experiments)

[4] = target: T4, lipid-binding proteins in A549 cells (Homo sapiens, UniProt Q9NS69); test: as above; details: A-DA probe vs NoUV
T4 construct: endogenous in cells; host or cells: A549 (PMA-stimulated for the PTGS2 experiments)
T4 sequence (Q9NS69 whole entry): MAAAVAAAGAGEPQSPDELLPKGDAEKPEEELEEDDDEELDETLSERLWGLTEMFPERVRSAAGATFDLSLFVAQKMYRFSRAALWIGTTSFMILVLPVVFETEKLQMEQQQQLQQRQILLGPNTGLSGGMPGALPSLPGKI

[5] = target: T5, lipid-binding proteins in A549 cells (Homo sapiens, UniProt P35354); test: as above
T5 construct: endogenous in cells; host or cells: A549 (PMA-stimulated for the PTGS2 experiments)
T5 sequence (P35354 18-604): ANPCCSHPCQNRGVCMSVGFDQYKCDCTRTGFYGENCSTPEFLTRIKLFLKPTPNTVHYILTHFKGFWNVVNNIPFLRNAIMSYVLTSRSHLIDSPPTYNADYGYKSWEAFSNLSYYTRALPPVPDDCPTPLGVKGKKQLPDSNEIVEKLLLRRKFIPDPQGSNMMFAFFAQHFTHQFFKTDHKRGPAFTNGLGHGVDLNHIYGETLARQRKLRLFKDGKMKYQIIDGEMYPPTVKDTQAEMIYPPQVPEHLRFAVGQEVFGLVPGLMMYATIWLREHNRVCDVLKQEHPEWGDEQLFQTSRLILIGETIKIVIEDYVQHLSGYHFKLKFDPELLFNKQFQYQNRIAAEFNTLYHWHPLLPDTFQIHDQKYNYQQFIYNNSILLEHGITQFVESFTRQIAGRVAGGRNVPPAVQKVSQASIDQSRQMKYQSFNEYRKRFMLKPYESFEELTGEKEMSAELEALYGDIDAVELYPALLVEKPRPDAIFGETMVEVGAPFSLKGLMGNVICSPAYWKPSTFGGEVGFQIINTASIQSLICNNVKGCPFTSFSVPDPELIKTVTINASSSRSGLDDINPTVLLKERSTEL

[6] = target: T6, lipid-binding proteins in A549 cells (Homo sapiens, UniProt Q96G23); test: as above; details: A-DA probe vs NoUV
T6 construct: endogenous in cells; host or cells: A549 (PMA-stimulated for the PTGS2 experiments)

[7] = target: T7, lipid-binding proteins in A549 cells (Homo sapiens, UniProt P07602); test: as above; details: A-DA probe vs NoUV
T7 construct: endogenous in cells; host or cells: A549 (PMA-stimulated for the PTGS2 experiments)
T7 sequence (P07602 60-524): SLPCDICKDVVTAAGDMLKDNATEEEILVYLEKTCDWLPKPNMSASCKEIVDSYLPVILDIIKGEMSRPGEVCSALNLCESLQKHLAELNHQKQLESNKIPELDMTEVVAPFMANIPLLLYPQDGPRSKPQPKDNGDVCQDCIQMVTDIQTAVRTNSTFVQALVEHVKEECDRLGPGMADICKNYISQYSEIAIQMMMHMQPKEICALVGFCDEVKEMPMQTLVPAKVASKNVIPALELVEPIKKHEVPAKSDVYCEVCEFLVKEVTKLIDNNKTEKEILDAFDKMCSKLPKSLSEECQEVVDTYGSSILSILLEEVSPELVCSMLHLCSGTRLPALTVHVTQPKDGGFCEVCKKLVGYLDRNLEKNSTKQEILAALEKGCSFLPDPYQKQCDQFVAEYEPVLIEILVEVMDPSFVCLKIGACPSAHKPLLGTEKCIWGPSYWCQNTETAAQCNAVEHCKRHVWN

[8] = target: T8, lipid-binding proteins in A549 cells (Homo sapiens, UniProt P30519); test: as above; details: A-DA probe vs NoUV
T8 construct: endogenous in cells; host or cells: A549 (PMA-stimulated for the PTGS2 experiments)

[9] = target: T9, lipid-binding proteins in A549 cells (Homo sapiens, UniProt Q7Z2K6); test: as above; details: A-DA probe vs NoUV
T9 construct: endogenous in cells; host or cells: A549 (PMA-stimulated for the PTGS2 experiments)

[10] = target: T10, lipid-binding proteins in A549 cells (Homo sapiens, UniProt P45880); test: as above; details: A-DA probe vs NoUV
T10 construct: endogenous in cells; host or cells: A549 (PMA-stimulated for the PTGS2 experiments)
T10 sequence (P45880 whole entry): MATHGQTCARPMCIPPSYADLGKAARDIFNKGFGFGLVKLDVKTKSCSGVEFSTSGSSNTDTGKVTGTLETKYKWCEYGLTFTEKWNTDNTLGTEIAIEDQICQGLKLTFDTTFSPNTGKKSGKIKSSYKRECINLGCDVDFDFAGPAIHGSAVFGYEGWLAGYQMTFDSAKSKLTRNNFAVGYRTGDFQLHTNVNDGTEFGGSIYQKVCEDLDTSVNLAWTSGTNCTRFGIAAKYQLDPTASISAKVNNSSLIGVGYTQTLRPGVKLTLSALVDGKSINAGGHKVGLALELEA

[11] = target: T11, lipid-binding proteins in A549 cells (Homo sapiens, UniProt Q15738); test: as above; details: A-DA probe vs NoUV
T11 construct: endogenous in cells; host or cells: A549 (PMA-stimulated for the PTGS2 experiments)
T11 sequence (Q15738 whole entry): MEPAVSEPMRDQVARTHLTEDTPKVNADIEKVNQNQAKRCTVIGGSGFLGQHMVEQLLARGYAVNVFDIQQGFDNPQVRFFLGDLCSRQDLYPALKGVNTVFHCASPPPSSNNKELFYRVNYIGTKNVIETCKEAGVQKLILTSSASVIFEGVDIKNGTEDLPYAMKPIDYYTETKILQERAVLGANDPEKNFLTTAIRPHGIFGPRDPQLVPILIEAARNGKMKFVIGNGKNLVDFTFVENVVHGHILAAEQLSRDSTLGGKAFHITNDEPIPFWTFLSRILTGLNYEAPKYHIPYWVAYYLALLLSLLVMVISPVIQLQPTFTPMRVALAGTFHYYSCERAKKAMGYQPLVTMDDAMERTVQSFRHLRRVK

[12] = target: T12, lipid-binding proteins in A549 cells (Homo sapiens, UniProt Q9HAW7); test: as above; details: A-DA probe vs NoUV
T12 construct: endogenous in cells; host or cells: A549 (PMA-stimulated for the PTGS2 experiments)

[13] = target: T13, lipid-binding proteins in A549 cells (Homo sapiens, UniProt P07093); test: as above; details: protein SERPINE2 (P07093), A-DA probe
T13 construct: endogenous in cells; host or cells: A549 (PMA-stimulated for the PTGS2 experiments)
T13 sequence (P07093 20-398): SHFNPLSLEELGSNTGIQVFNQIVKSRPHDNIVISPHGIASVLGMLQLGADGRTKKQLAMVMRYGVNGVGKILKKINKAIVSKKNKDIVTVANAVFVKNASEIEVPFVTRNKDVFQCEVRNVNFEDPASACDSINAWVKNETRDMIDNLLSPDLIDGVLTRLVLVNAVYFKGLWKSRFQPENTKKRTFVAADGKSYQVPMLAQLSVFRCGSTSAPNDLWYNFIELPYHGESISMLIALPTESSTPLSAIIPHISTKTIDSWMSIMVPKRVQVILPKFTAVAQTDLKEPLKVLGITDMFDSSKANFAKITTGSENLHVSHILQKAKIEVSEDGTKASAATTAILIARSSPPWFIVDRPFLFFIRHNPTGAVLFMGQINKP

[14] = target: T14, lipid-binding proteins in A549 cells (Homo sapiens, UniProt P21796); test: as above; details: A-DA probe vs NoUV
T14 construct: endogenous in cells; host or cells: A549 (PMA-stimulated for the PTGS2 experiments)
T14 sequence (P21796 whole entry): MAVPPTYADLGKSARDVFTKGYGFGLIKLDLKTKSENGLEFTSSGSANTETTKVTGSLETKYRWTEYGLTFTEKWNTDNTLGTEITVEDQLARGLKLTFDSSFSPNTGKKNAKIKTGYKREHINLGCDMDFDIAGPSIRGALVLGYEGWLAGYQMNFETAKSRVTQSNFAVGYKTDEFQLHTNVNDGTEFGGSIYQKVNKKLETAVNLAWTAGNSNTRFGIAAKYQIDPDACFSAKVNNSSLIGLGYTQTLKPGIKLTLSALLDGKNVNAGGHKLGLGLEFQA

[15] = target: T15, lipid-binding proteins in A549 cells (Homo sapiens, UniProt O95470); test: as above; details: A-DA probe vs NoUV
T15 construct: endogenous in cells; host or cells: A549 (PMA-stimulated for the PTGS2 experiments)

[16] = target: T16, lipid-binding proteins in A549 cells (Homo sapiens, UniProt Q14534); test: as above; details: A-DA probe vs NoUV
T16 construct: endogenous in cells; host or cells: A549 (PMA-stimulated for the PTGS2 experiments)

[17] = target: T17, lipid-binding proteins in A549 cells (Homo sapiens, UniProt Q96KC8); test: as above; details: A-DA probe vs NoUV
T17 construct: endogenous in cells; host or cells: A549 (PMA-stimulated for the PTGS2 experiments)

[18] = target: T18, lipid-binding proteins in A549 cells (Homo sapiens, UniProt Q99536); test: as above; details: A-DA probe vs NoUV
T18 construct: endogenous in cells; host or cells: A549 (PMA-stimulated for the PTGS2 experiments)

[19] = target: T19, lipid-binding proteins in A549 cells (Homo sapiens, UniProt Q9UH99); test: as above; details: protein SUN2 (Q9UH99), A-DA probe
T19 construct: endogenous in cells; host or cells: A549 (PMA-stimulated for the PTGS2 experiments)

[20] = target: T20, lipid-binding proteins in A549 cells (Homo sapiens, UniProt Q5HYK3); test: as above; details: A-DA probe vs NoUV
T20 construct: endogenous in cells; host or cells: A549 (PMA-stimulated for the PTGS2 experiments)

[21] = target: T21, lipid-binding proteins in A549 cells (Homo sapiens, UniProt Q8NF37); test: as above; details: A-DA probe vs NoUV
T21 construct: endogenous in cells; host or cells: A549 (PMA-stimulated for the PTGS2 experiments)

[22] = target: T22, lipid-binding proteins in A549 cells (Homo sapiens, UniProt Q8N5I4); test: as above; details: A-DA probe vs NoUV
T22 construct: endogenous in cells; host or cells: A549 (PMA-stimulated for the PTGS2 experiments)

[23] = target: T23, lipid-binding proteins in A549 cells (Homo sapiens, UniProt P50402); test: as above; details: A-DA probe vs NoUV
T23 construct: endogenous in cells; host or cells: A549 (PMA-stimulated for the PTGS2 experiments)

[24] = target: T24, lipid-binding proteins in A549 cells (Homo sapiens, UniProt Q53GQ0); test: as above; details: A-DA probe vs NoUV
T24 construct: endogenous in cells; host or cells: A549 (PMA-stimulated for the PTGS2 experiments)
T24 sequence (Q53GQ0 whole entry): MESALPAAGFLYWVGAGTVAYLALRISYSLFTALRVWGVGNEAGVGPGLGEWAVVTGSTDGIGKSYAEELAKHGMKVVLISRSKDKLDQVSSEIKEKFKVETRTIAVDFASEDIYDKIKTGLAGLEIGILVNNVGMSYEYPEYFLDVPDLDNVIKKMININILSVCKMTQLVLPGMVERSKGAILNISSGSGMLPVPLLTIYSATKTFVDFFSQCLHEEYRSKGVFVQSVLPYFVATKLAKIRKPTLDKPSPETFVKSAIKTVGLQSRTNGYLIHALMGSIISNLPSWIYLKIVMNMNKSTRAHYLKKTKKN

[25] = target: T25, lipid-binding proteins in A549 cells (Homo sapiens, UniProt Q86XL3); test: as above; details: A-DA probe vs NoUV
T25 construct: endogenous in cells; host or cells: A549 (PMA-stimulated for the PTGS2 experiments)
T25 sequence (Q86XL3 whole entry): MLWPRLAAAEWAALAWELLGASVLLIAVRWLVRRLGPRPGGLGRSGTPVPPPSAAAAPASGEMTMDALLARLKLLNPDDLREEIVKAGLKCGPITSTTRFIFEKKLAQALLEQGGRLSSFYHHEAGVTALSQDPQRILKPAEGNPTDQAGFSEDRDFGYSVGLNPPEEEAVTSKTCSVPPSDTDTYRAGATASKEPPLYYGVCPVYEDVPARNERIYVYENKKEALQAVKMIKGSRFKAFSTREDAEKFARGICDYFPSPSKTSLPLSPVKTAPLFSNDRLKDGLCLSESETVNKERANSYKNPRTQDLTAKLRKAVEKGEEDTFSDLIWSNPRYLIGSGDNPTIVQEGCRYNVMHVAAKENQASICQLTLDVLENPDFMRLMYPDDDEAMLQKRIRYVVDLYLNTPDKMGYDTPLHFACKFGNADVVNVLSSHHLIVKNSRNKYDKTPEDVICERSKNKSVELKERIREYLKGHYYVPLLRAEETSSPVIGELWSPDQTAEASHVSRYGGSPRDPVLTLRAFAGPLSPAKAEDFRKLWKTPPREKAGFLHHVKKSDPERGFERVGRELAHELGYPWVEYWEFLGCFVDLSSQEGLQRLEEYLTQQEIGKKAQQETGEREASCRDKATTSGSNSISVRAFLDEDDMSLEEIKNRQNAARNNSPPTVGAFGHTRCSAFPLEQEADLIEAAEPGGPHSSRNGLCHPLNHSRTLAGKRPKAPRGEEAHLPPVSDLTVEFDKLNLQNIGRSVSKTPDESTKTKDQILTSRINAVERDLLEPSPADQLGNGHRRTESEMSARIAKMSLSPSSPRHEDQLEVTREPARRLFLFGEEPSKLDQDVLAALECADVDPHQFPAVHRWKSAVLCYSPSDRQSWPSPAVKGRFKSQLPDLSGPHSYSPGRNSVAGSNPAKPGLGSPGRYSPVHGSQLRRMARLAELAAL

[26] = target: T26, lipid-binding proteins in A549 cells (Homo sapiens, UniProt Q9NX47); test: as above; details: A-DA probe vs NoUV
T26 construct: endogenous in cells; host or cells: A549 (PMA-stimulated for the PTGS2 experiments)
T26 sequence (Q9NX47 whole entry): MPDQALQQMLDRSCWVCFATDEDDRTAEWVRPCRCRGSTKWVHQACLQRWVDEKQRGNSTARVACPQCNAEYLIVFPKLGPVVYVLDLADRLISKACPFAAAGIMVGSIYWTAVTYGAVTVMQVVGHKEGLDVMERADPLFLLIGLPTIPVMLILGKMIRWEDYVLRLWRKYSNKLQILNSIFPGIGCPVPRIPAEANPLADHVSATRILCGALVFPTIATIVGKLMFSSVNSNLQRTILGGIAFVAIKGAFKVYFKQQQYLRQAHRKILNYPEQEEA

[27] = target: T27, lipid-binding proteins in A549 cells (Homo sapiens, UniProt Q9H6K4); test: as above; details: A-DA probe vs NoUV
T27 construct: endogenous in cells; host or cells: A549 (PMA-stimulated for the PTGS2 experiments)
T27 sequence (Q9H6K4 whole entry): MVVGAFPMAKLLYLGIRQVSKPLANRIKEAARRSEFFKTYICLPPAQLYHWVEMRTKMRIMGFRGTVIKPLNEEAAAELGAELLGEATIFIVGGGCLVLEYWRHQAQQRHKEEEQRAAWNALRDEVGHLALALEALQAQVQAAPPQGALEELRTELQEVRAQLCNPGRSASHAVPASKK

[28] = target: T28, lipid-binding proteins in A549 cells (Homo sapiens, UniProt O75911); test: as above; details: A-DA probe vs NoUV
T28 construct: endogenous in cells; host or cells: A549 (PMA-stimulated for the PTGS2 experiments)
T28 sequence (O75911 whole entry): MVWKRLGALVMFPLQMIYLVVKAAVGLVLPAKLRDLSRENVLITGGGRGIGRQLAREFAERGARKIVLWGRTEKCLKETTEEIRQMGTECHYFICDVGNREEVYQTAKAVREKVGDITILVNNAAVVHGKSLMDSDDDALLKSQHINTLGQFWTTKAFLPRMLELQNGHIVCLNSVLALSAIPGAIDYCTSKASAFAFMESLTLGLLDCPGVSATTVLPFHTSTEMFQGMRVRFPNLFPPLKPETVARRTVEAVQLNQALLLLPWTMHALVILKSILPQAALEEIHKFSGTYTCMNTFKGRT

[29] = target: T29, lipid-binding proteins in A549 cells (Homo sapiens, UniProt Q9Y639); test: as above; details: A-DA probe vs NoUV
T29 construct: endogenous in cells; host or cells: A549 (PMA-stimulated for the PTGS2 experiments)
T29 sequence (Q9Y639 29-398): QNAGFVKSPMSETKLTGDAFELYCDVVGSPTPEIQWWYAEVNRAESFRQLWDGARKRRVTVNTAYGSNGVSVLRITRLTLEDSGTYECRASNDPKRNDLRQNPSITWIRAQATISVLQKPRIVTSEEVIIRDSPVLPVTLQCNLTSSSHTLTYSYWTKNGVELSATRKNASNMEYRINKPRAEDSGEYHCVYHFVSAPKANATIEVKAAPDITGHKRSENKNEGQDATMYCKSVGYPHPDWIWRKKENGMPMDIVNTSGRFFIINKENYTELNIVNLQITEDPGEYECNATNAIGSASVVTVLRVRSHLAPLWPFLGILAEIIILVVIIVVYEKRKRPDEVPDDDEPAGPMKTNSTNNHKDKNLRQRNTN

[30] = target: T30, lipid-binding proteins in A549 cells (Homo sapiens, UniProt Q8IZV5); test: as above; details: A-DA probe vs NoUV
T30 construct: endogenous in cells; host or cells: A549 (PMA-stimulated for the PTGS2 experiments)

[31] = target: T31, lipid-binding proteins in A549 cells (Homo sapiens, UniProt Q9BTX1); test: as above; details: A-DA probe vs NoUV
T31 construct: endogenous in cells; host or cells: A549 (PMA-stimulated for the PTGS2 experiments)

[32] = target: T32, lipid-binding proteins in A549 cells (Homo sapiens, UniProt P67812); test: as above; details: A-DA probe vs NoUV
T32 construct: endogenous in cells; host or cells: A549 (PMA-stimulated for the PTGS2 experiments)

C#CCCC/C=C\C/C=C\C/C=C\C/C=C\CCCC(=O)NCCC1(C)N=N1 [A-DA, (5Z,8Z,11Z,14Z)-N-(2-(3-methyl-3H-diazirin-3-yl)ethyl)icosa-5,8,11,14-tetraen-19-ynamide]
3.2: SILAC ratio of PTGS2, probe versus No UV ([5]; A-DA 5 μM) | SILAC ratio, PTGS2 (P35354) ([5]; A-DA probe vs NoUV)
20.0: SILAC ratio, No UV (A-DA probe versus No UV), Reep2 (Q8VCD6) [1] | SILAC ratio, PGRMC2 (Q80UU9) [2] | SILAC ratio, LPCAT3 (Q6P1A2) [3] | SILAC ratio, PSAP (P07602) [7] | SILAC ratio, HMOX2 (P30519) [8] | SILAC ratio, ERMP1 (Q7Z2K6) [9] | SILAC ratio, UGT1A7 (Q9HAW7) [12] | SILAC ratio, VDAC1 (P21796) [14] | SILAC ratio, SQLE (Q14534) [16] | SILAC ratio, DNAJC1 (Q96KC8) [17] | SILAC ratio, No UV (A-DA probe versus No UV) [19] | SILAC ratio, COQ5 (Q5HYK3) [20] | SILAC ratio, LPCAT1 (Q8NF37) [21] | SILAC ratio, DHRSX (Q8N5I4) [22] | SILAC ratio, HSD17B12 (Q53GQ0) [24] | SILAC ratio, ANKLE2 (Q86XL3) [25] | SILAC ratio, OPA3 (Q505D7) [27] | SILAC ratio, NPTN (Q9Y639) [29] | SILAC ratio, RDH10 (Q8IZV5) [30] | SILAC ratio, TMEM48 (Q8VCB1) [31] | SILAC ratio, SEC11A (P67812) [32]
18.4: SILAC ratio, TOMM22 (Q9CPQ3) [4]
13.3: SILAC ratio, CERS2 (Q924Z4) [6]
7.8: SILAC ratio, VAT1 (Q99536) [18]
10.3: SILAC ratio, EMD (O08579) [23]
15.6: SILAC ratio, DHRS3 (O75911) [28]
4.5: SILAC ratio, No UV (A-DA probe versus No UV) [13]
4.1: SILAC ratio, MARCH5 (Q3KNM2) [26]
19.7: SILAC ratio, VDAC2 (P45880) [10] | SILAC ratio, SGPL1 (O95470) [15]
16.9: SILAC ratio, NSDHL (Q15738) [11]
